Test results: patent US20120270848A1, “Novel Compositions and Therapeutic Methods Using Same” (Galleon Pharmaceuticals, Inc., priority 2010, published 2012)
Converted amounts (≈) assume the structure as drawn. “And” between values parts separate entries of the source, which are not always exact repeats. Equal entries are not always repeated. “Also recorded” adds a separate entry of the source.

How the values were obtained:
[1] = tested on: spontaneously breathing rats; test: In vivo spirometry: cumulative dose-dependent ventilatory response (maximum peak minute ventilation); set-up: species or system rat
Protocol: (§1) All surgical procedures were performed under anesthesia induced by 2% isoflurane in compressed medical grade air. With rats in supine position, the right femoral vein was catheterized using polyethylene tubing (PE-50). This catheter was used for fluid and drug administration. Simultaneously, the right femoral artery was also catheterized for monitoring blood pressure. In order to measure the respiratory parameters in spontaneously breathing rats, trachea was intubated using 13 gauge tracheal tube (2.5 mm ID, Instech Solomon, Pa.).
After establishing a stable base-line at 1.5% isoflurane, cumulative dose-dependent (1, 3, 10 and 30 mg/kg) ventilatory responses to (−)-doxapram, (+)-doxapram, or racemic doxapram were generated from spontaneously breathing rats. Maximum peak minute ventilatory (MV) values at each dose from corresponding drug were calculated and used for generating ED50 values. Results are illustrated in Table 3 and FIG. 1. All the specific ventilatory stimulant activity of racemic doxapram was associated with the (+)-enantiomer.

[2] = Solubility in EtOH/MeOH for the chromatographic separation; assay type: physicochemical; details: organic solvent or mixture
Protocol: With stirring and sonication, 2.51 g of racemic doxapram were dissolved in approximately 200 mL EtOH/MeOH (50/50 v/v). The solution was injected onto the chromatographic column using the conditions illustrated above. The injection volume was 4 mL, performed every 7 minutes. The appropriate fractions collected from the chromatographic process were concentrated using rotary evaporators at 40° C. and 50 mbar. After solvent removal, the products were dried in a vacuum oven at 40° C. to obtain (−)-doxapram (1.19 g, 95% yield, ?99% e.e.) and (+)-doxapram (1.34 g, 107% yield, ≧99% e.e.). The experimental recovery of (+)-doxapram may have been high due to residual DMEA in the system.
A sample of 19.94 g of racemic doxapram was dissolved in approximately 1.0 L of EtOH/MeOH 80/20 (v/v) with stirring and sonication. The injection volume was 4 mL, and injection was performed every 5.83 min. The appropriate fractions collected from the chromatographic process were concentrated using rotary evaporators at 40° C. and 50 mbar. After solvent removal, the products were dried in a vacuum oven at 40° C. to obtain (−)-doxapram (8.47 g, 85% yield, ≧99% e.e.) and (+)-doxapram (12.50 g, 125% yield, ≧99% e.e.). The experimental recovery of (+)-doxapram may have been high due to residual DMEA in the system.

[3] = tested on: opioid-induced respiratory depression in the rat; test: Opioid-induced changes in arterial blood gas parameters, arterial blood gas analysis; assay type: in vivo; details: for Arterial Blood Gases - OIRD, pCO2 (mmHg) and saO2 (%): reversal of opioid-induced respiratory depression: 3 mg/kg/min IV infusion after 10 mg/kg IV morphine, compared to vehicle; for PaCO2: % reversal / PaO2: % reversal / pH % reversal / saO2: % reversal: 3.0 mpk/min IV infusion after morphine 10 mg/kg, vs composite vehicle group, 15 min into 20 min infusion
Protocol: Rats with pre-cannulated jugular vein and femoral arterial catheters (for administrating drugs and obtaining blood samples respectively) were obtained from Harlan laboratories and kept at the animal facility at Galleon Pharmaceuticals until the experimental procedures. All animals experiments were carried out according to the US law on animals care and use approved by Galleon Pharmaceuticals IACUC. Each animal was dosed with morphine sulfate (10 mg/kg), dissolved in saline at a concentration of 10 mg/ml, via injection into the jugular vein over a period of 20 seconds with a 20 second flush of 0.9% NaCl saline. Prior to morphine administration, two 250 μL samples of arterial blood were aspirated from the femoral artery into a pre-heparinized syringe. The samples were analyzed on Radiometer's ABL Flex 800, where pO2, pCO2, pH, saO2 and other parameters were recorded. Aspirated volumes of arterial blood were replaced by room temperature sterile saline (˜300 μL) slowly flushed back into the femoral arterial catheter of the rodent to prevent anemia and/or dehydration. Morphine was then administered and 2 minutes later another blood sample was taken. After a period of 5 min from the administration of morphine, (−)-doxapram, (+)-doxapram or racemic doxapram (15 mg/mL) was administered via infusion into the jugular vein at a rate of 60 μL/min/300 gram rat. The infusion started at t=15 minutes and ended at t=35 minutes. Arterial blood gas analysis occurred at time points t=17, 25, 30, 37, 45, and 50 minutes. […] The small improvements in blood gas parameters seen towards the end of the experiment in the (−)-doxapram group were associated with behavioral toxicities and therefore cannot be distinguished from non-specific side effects. Results are illustrated in Table 4 and FIGS. 3-4.

[4] = tested on: hypoxic ventilatory response in the rat; test: Hypoxic ventilatory response to 12% O2, plethysmography; assay type: in vivo; details: IV infusion (Table 5: 1, 3 mg/kg/min; text: 3 mg/kg/min), compared to vehicle
Protocol: Rats with a pre-cannulated jugular vein (for administrating drugs) were acclimated to plethysmography chambers for a minimum of 60 minutes, or until animals were no longer restless. Each animal was dosed with (−)-doxapram, (+)-doxapram, or racemic doxapram via infusion into the jugular vein catheter over a period of 15 minutes, at 3 mg/kg/min at 0.020 ml/min based on a 300 gram rat. After a period of 15 minutes, an isocapnic, hypoxic mixture (12% O2 balanced N2) was administered into all chambers using a gas mixer (CWE inc. GSM-3 gas mixer) for 15 minutes. After 15 minutes, the gas mixer was turned off, resulting in normal room air pumped into the chambers. Ten minutes later, the infusion pumps were turned off, and all animals were given a 15 minute recovery period, followed by a post-study analysis of rat health and behavior. […] The small increases in minute ventilation seen towards the end of the experiment in the (−)-doxapram group (i.e. T20-T55) were associated with behavioral toxicities and therefore cannot be distinguished from non-specific side effects. Results are illustrated in FIG. 5 and Table 5.

[5] = tested on: opioid-induced respiratory depression in the rat; test: Opioid-induced respiratory depression, plethysmography (minute ventilation); assay type: in vivo; details: 1, 3 mg/kg/min IV infusion after 10 mg/kg IV morphine; compared to vehicle
Protocol: All animal experiments were carried out according to the US law on animals care and use approved by Galleon Pharmaceuticals Institutional Animal Care and Use Committee (IACUC). Rats with pre-cannulated jugular vein (for administrating drugs) were acclimated to plethysmography chambers for a minimum of 60 minutes, or until animals were no longer restless. Each animal was dosed with morphine sulfate (10 mg/kg), dissolved in sterile water at a concentration of 10 mg/mL (supplied by Baxter Healthcare Corporation), via injection into the jugular vein catheter over a period of 5-10 seconds. After a period of 5 min, (−)-doxapram, (+)-doxapram, or racemic doxapram ([…]) was administered via infusion into the jugular vein at a rate of 0.020 mL/min for a 300 gram rat. Behavioral observations were made though the course of the experiment. After 20 min of infusion at 1 mg/kg/min, the infusion rates were tripled from 0.020 mL/min to 0.060 mL/min for all rats, based on body weight. After 20 minutes of infusion at this dose, the infusion pumps were turned off, and all animals were given a 20 minute recovery period, followed by a post-study analysis of rat health and behavior. […] The small increase in minute ventilation seen towards the end of the experiment in the (−)-doxapram group was associated with behavioral toxicities and therefore cannot be distinguished from non-specific side effects. […]

rats = test: Observations of animal behavior and adverse effects; assay type: in vivo, rat; details: for Death (animals out of group of 6): 30 mg/kg IV bolus, 30 mg/kg; for Clonic movements (animals out of group of 6) / Hunching, static, increased urination & defecation (animals out of group of 6): 3 mg/kg
Source text: In Examples 1-7 described above, all rats are observed for behavioral changes and adverse effects, as recognized by those skilled in the art. Such effects include central nervous system and motor effects such as impairment, sedation, and convulsive potential, and mortality. Other effects related to bodily functions are also observable and may include changes in breathing, urination, defecation, posture, and normal cage activities (i.e., grooming, exploring, eating, etc.). […]

[6] = Comparative IV pharmacokinetics of a 20 min infusion; assay type: in vivo; details: 20 min infusion of 3 mg/kg/min IV
Protocol: FIG. 9 is a set of graphs illustrating the IV pharmacokinetics of a 20-minute infusion (from 15 minutes to 35 minutes) of 3 mg/kg/min IV (+)-doxapram and (−)-doxapram. The upper panel pharmacokinetic data was plotted on a linear y-axis, the lower panel represents the same data plotted on a log y-axis.
The difference in efficacy and adverse events seen between the enantiomers is therefore due to genuine differences in the intrinsic pharmacodynamics (i.e. pharmacology and side effects profiles) of the enantiomers, as opposed to differential exposures/pharmacokinetics. Results are illustrated in FIG. 9.

rat = test: Cardio-respiratory traces after IV bolus (respiratory flow, volumes, minute ventilation, blood pressure); assay type: in vivo; details: for effect on arterial blood pressure and arrhythmias / effect on respiratory flow, inspiratory and expiratory volume, minute ventilation: 30 mg/kg IV bolus
Protocol: as §1
The procedure outlined in Example 1 was used herein. […] Results are illustrated in FIG. 6.
The procedure described in Example 1 was used herein to evaluate the effect of (−)-doxapram on mean arterial blood pressure (MAP) in the rat. […] Results are illustrated in FIG. 8.

[7] = ventilatory stimulant activity, rat IV
[8] = IV bolus, cumulative doses 1, 3, 10 and 30 mg/kg, 1.5% isoflurane, maximum peak MV values

Structure (SMILES) | Arterial Blood Gases - OIRD, pCO2 (mmHg) and saO2 (%): reversal of opioid-induced respiratory depression [3] | PaCO2: % reversal [3] [%] | PaO2: % reversal [3] [%] | pH % reversal [3] [%] | saO2: % reversal [3] [%] | Plethysmography (MV), Naïve and HVR: potentiation of hypoxic ventilatory response [4] | Plethysmography - OIRD (MV): reversal of opioid-induced respiratory depression [5] | Death (animals out of group of 6) (rats; Pleth.) | plasma exposure (time course, maximum concentration, AUC, washout), enantiomer vs enantiomer [6] | ED50 (mg/kg IV), increase in minute ventilation (MV) [1, 8] | effect on arterial blood pressure and arrhythmias (rat) | effect on respiratory flow, inspiratory and expiratory volume, minute ventilation (rat) | other results
CCN1CC(CCN2CCOCC2)C(c2ccccc2)(c2ccccc2)C1=O (racemic) [doxapram, 1-ethyl-4-(2-morphilinoethyl)-3,3-diphenyl-2-pyrrolidinone, reference compound] | significantly reverse opioid-induced respiratory depression | 90 | 22 | 58 | 33 | significantly potentiated the hypoxic ventilatory response |  |  |  |  |  |  | ED50 ([1]; Rattus norvegicus, IV bolus, cumulative doses 1, 3, 10 and 30 mg/kg, 1.5% isoflurane, maximum peak MV values, read-out: ED50 (mg/kg IV), increase in minute ventilation (MV)): 4.8 mg/kg; potency relative to (+)-enantiomer [1, 7]: approximately 50%; solubility ([2]; in EtOH/MeOH 80/20 (v/v)): 19.9 mg/mL (≈ 52.6 mM); solubility ([2]; in EtOH/MeOH (50/50 v/v)): 12.6 mg/mL (≈ 33.3 mM)
CCN1CC(CCN2CCOCC2)C(c2ccccc2)(c2ccccc2)C1=O (single isomer, unassigned; (+)) [(+)-doxapram, (+)-enantiomer of 1-ethyl-4-(2-morphilinoethyl)-3,3-diphenyl-2-pyrrolidinone] | significantly reverse opioid-induced respiratory depression; also recorded: Active | 79 | 41 | 49 | 41 | significantly potentiated the hypoxic ventilatory response; also recorded: Active | significantly reverses opioid-induced respiratory depression; also recorded: Active | 0/6 | directly comparable time course, maximum concentration and exposure (AUC) | 2.2 mg/kg and 2.1 mg/kg | only a minimal reduction in blood pressure without associated arrhythmias | increased respiratory flow, inspiratory and expiratory volume, as well as enhanced minute ventilation | adverse effects across the studies (rats; rat, in vivo, iv): did not; Clonic movements (animals out of group of 6) (rats; rat, in vivo, iv): 0/6; Hunching, static, increased urination & defecation (animals out of group of 6) (rats; rat, in vivo, iv): 0/6; Cardiopulmonary response: mean arterial pressure (MAP) (rat; E-Phys, ≧10 mg/kg IV bolus): MAP ↓
CCN1CC(CCN2CCOCC2)C(c2ccccc2)(c2ccccc2)C1=O (single isomer, unassigned; (-)) [(−)-doxapram] | does not; also recorded: Not active | 24 | −2 | −8 | −6 | did not; also recorded: Not active | does not; also recorded: Not active | 5/6 | directly comparable time course, maximum concentration and exposure (AUC) | >200 mg/kg | pronounced reduction in arterial blood pressure together with a period of associated arrhythmias; also recorded: pronounced drop in blood pressure in rat, including a period of heart arrhythmias | only a minimal effect on respiratory flow, inspiratory and expiratory volume, and minute ventilation; also recorded: minimal ventilatory response | Clonic movements (animals out of group of 6) (rats; ABG post morphine, 3 mg/kg/min IV): 5/6; Hunching, static, increased urination & defecation (animals out of group of 6) (rats; Pleth., 3 mg/kg/min IV): 6/6; adverse effects across the studies (rats; at the doses tested, IV): consistently produced a variety of adverse effects; potency vs (+)-enantiomer (times less potent) [1, 7]: at least 100 times; Cardiopulmonary response: arrhythmias (rat; E-Phys, ≧10 mg/kg IV bolus): Arrhythmias; Cardiopulmonary response: mean arterial pressure (MAP) (rat; E-Phys, ≧10 mg/kg IV bolus, 10 mg/kg): MAP ↓↓
